Measured values as given in EP0432309B1, “Sugar derivatives, process for their preparation and their use” (Laevosan-Gesellschaft m.b.H., priority 1989, dated 1991).

How the values were obtained:
[1] = test system: Escherichia coli ATCC 8739; experiment: preservation test according to DAB 9, VIII, N1 (colony counts over time); format: cell-based; settings: E. coli; for KBE nach 10 Tagen: 10 days; for KBE nach 3 Tagen: 3 days; for KBE nach 1 Tag: 1 day
Excerpt: (§1) Die erfindungsgemäßen Verbindungen weisen eine bakterizide Wirksamkeit auf, wie die nachstehend angegebenen Versuchsergebnisse zeigen: Präparat: Di-deoxy-glyceropentulose-Dianhydrid 0,3 %, 1 % und 3 % Die Untersuchung wurde mit folgenden Keimen durchgeführt: Escherichia coli ATCC 8739 Pseudomonas aeruginosa ATCC 9027 Staphylococcus aureus ATCC 6538 Candida albicans ATCC 10231 Aspergillus niger ATCC 16404 Tabelle 6
(§2) Analog Beispiel 9 wurde die bakterizide Wirksamkeit von DGP untersucht. Präparat: DGP-wässriger Sirup 0,3 %, 1 % und 3 %, Charge: 91621 Die Untersuchung wurde mit folgenden Keimen durchgeführt: Escherichia coli ATCC 8739 Pseudomonas aeruginosa ATCC 9027 Staphyloccus aureus ATCC 6538 Candida albicans ATCC 10231 Aspergillus niger ATCC 16404 Tabelle 7

[2] = test system: Pseudomonas aeruginosa ATCC 9027; experiment: as above; format: cell-based; settings: Pseud. aerug.; for KBE nach 10 Tagen: 10 days; for KBE nach 3 Tagen: 3 days; for KBE nach 1 Tag: 1 day
Excerpt: as §1, §2

[3] = test system: Staphylococcus aureus ATCC 6538; experiment: as above; format: cell-based; settings: Staph. aureus; for KBE nach 10 Tagen: 10 days; for KBE nach 3 Tagen: 3 days; for KBE nach 1 Tag: 1 day
Excerpt: as §1, §2

[4] = stability / hydrolysis in aqueous solution; format: physicochemical; settings: result in words
Method: Aus den geeigneten Fraktionen kann hochgereinigte 3-DGP als farbloser, nicht kristallisierender Sirup erhalten werden. Da die Substanz unter wasserfreien oder wasserarmen Bedingungen zur Bildung von dimeren Anhydriden neigt, ist es zweckmäßig, sie als etwa 50 %ige wäßrige Lösung herzustellen und aufzubewahren. […] Erhöhung der Temperatur und Absenken des pH-Wertes beschleunigen diese Zersetzung. Für die Aufbewahrung ist es daher zweckmäßig, Temperaturen von ≦ 4°C und pH-Werte zwischen 5 und 6 einzuhalten. In solchen Lösungen liegt offenbar ein Gemisch der alpha- und beta-Furanosen und des offenkettigen Ketozuckers vor.
Die Glycoside bilden sich außerordentlich leicht aus den Lösungen von 3-DGP in den entsprechenden Alkoholen in Gegenwart sehr geringer Mengen an Säure oder Ionenaustauscher in der H⁺-Form als Katalysator bereits nach kurzer Behandlung bei Raumtemperatur. Ebenso leicht tritt in wäßriger Lösung Hydrolyse der Glycoside ein, so daß unter physiologischen Bedingungen eine Äquivalenz mit freier 3-DGP erwartet werden kann.
Das Dianhydrid der Formel II (R = H) bildet sich leicht bei Behandlung von mäßig sauren 3-DGP-Lösungen mit wasserentziehenden Mitteln, wie z.B. wasserfreiem Natriumsulfat oder Calciumsulfat, oder beim Eindampfen von wäßrigen oder organischen Lösungen von 3-DGP und Stehenlassen des wasserfreien Produktes.

[5] = test system: humanen Ovarialkarzinom-Zellkultur (HOC-7); experiment: human tumour cloning assay (HTCA): clonal growth of single malignant cells in semisolid media, colonies counted after 21 days; format: cell-based; settings: for Kolonienüberleben: HOC-7, 21 days; for antiproliferative/cytotoxische Wirkung: HOC-7, HTCA, result in words
Excerpt: Zur Prüfung auf ihre antiproliferativen/cytotoxischen Eigenschaften wurden die erfindungsgemäßen Verbindungen der Formel I und II mittels einer humanen Ovarialkarzinom-Zellkultur (HOC-7) getestet, wobei als Testsystem der sogenannte human tumour cloning assay (HTCA) herangezogen wurde, ein System, in dem das klonale Wachstum maligner Einzelzellen in semisoliden Medien selektiv erfaßt wird (vgl. S. Hamburger, Science 197, (1977), 461). Dabei zeigten die Verbindungen eine überraschend hohe antiproliferative/cytotoxische Wirkung.
Das in Beispiel 1 hergestellte 3-DGP sowie DGP-DA von Beispiel 2 wurden hinsichtlich ihrer antiproliferativen/cytotoxischen Eigenschaften mittels einer humanen Ovarialkarzinom-Zellkultur (HOC-7) getestet, wobei als Testsystem der sogenannte human tumour cloning assay (HTCA) herangezogen wurde, ein System, in dem das klonale Wachstum maligner Einzelzellen in semisoliden Medien selektiv erfaßt wird (vgl. S. Hamburger, Science 197, (1977), 461).
Je eine wäßrige Lösung von 3-DGP und DGP-DA wurde in folgender Verdünnungsreihe getestet.
wobei sowohl ein […] (in Form von HgCl₂) als auch ein Ansatz mit Lösungsmittel (Aqua bidest) mitgeführt wurde.
Die Kulturen wurden bei 37°C, 5 % CO₂, 100 % Luftfeuchtigkeit 21 Tage inkubiert, danach wurden die Kultursysteme aufgearbeitet, wobei die gewachsenen Kolonien (Klone) unter dem Mikroskop ausgezählt wurden.
Als Wirksamkeit der getesteten Lösung wurde ein Kolonienüberleben < 50 % der Kontrolle definiert.

[6] = result in words

Structure (SMILES): O=C(CO)C[C@H](O)CO [DGP, 3-Deoxy-D-Glyceropentulose]
- KBE nach 10 Tagen ([1]; Konz 3 %): 0 KBE
- KBE nach 10 Tagen ([2]; Konz 0,3 %): 0 KBE
- KBE nach 3 Tagen ([2]; Konz 1 %): 0 KBE
- KBE nach 10 Tagen ([2]; Konz 1 %): 0 KBE
- KBE nach 1 Tag ([2]; Konz 3 %): 15 KBE
- KBE nach 3 Tagen ([2]; Konz 3 %): 0 KBE
- KBE nach 10 Tagen ([2]; Konz 3 %): 0 KBE
- KBE nach 10 Tagen ([3]; Konz 0,3 %): 0 KBE
- KBE nach 10 Tagen ([3]; Konz 1 %): 0 KBE
- KBE nach 3 Tagen ([3]; Konz 3 %): 0 KBE
- KBE nach 10 Tagen ([3]; Konz 3 %): 0 KBE
- Stabilität der wäßrigen Lösung [4]: relativ instabil
- Kolonienüberleben ([5]; Testkonzentration C-F (5.000-250 µg/ml im Petrischälchen), % of control): 0 % = Wirksamkeit
- Kolonienüberleben ([5]; Testkonzentration F1 (200 µg/ml)): 0,08 % = Wirksamkeit
- Kolonienüberleben ([5]; Testkonzentration F2 (152 µg/ml)): 10 % = Wirksamkeit
- Kolonienüberleben ([5]; Testkonzentration F3 (100 µg/ml)): 44 % = intermediäre Wirksamkeit
- Kolonienüberleben ([5]; Testkonzentration G-J (50-2,5 µg/ml)): 65 - 84 % = keine Wirksamkeit

Structure (SMILES): OC1COC2(COC3(CO2)CC(O)CO3)C1 [DGP-DA, Di-(3-deoxy-D-glyceropentulose)-dianhydrid]
- KBE nach 3 Tagen ([1]; Konz 0,3 %): 0 KBE
- KBE nach 10 Tagen ([1]; Konz 0,3 %): 0 KBE
- KBE nach 1 Tag ([1]; Konz 1 %): 0 KBE
- KBE nach 3 Tagen ([1]; Konz 1 %): 0 KBE
- KBE nach 10 Tagen ([1]; Konz 1 %): 0 KBE
- KBE nach 1 Tag ([1]; Konz 3 %): 0 KBE
- KBE nach 3 Tagen ([1]; Konz 3 %): 0 KBE
- KBE nach 10 Tagen ([1]; Konz 3 %): 0 KBE
- KBE nach 1 Tag ([2]; Konz 3 %): 0 KBE
- KBE nach 3 Tagen ([2]; Konz 3 %): 0 KBE
- KBE nach 10 Tagen ([2]; Konz 3 %): 0 KBE
- KBE nach 1 Tag ([3]; Konz 0,3 %): 0 KBE
- KBE nach 3 Tagen ([3]; Konz 0,3 %): 0 KBE
- KBE nach 10 Tagen ([3]; Konz 0,3 %): 0 KBE
- KBE nach 1 Tag ([3]; Konz 1 %): 0 KBE
- KBE nach 3 Tagen ([3]; Konz 1 %): 0 KBE
- KBE nach 10 Tagen ([3]; Konz 1 %): 0 KBE
- KBE nach 1 Tag ([3]; Konz 3 %): 0 KBE
- KBE nach 3 Tagen ([3]; Konz 3 %): 0 KBE
- KBE nach 10 Tagen ([3]; Konz 3 %): 0 KBE
- Stabilität der wäßrigen Lösung [4]: leicht zum Monomeren spaltbar
- Kolonienüberleben ([5]; Testkonzentration C (5.000 µg/ml)): 30 % = Wirksamkeit
- Kolonienüberleben ([5]; Testkonzentration D (2.500 µg/ml)): 50 % = intermediäre Wirksamkeit
- Kolonienüberleben ([5]; Testkonzentration E (500 µg/ml)): 57 % = intermediäre Wirksamkeit
- Kolonienüberleben ([5]; Testkonzentration F-J (250-2,5 µg/ml)): 61 - 89 % = keine Wirksamkeit

Structure (SMILES): CCCCOC1(COC(C)=O)C[C@H](OC(C)=O)CO1 (stereo partly drawn) [Diacyl-n-butyl-glycosid, n-Butyl-1,4-Diacetyl-3-Deoxy-D-Glyceropentulosid]
- antiproliferative/cytotoxische Wirkung [5]: eindeutige antiproliferative/cytotoxische Wirkung

Structure (SMILES): COC1(CO)C[C@H](O)CO1 (stereo partly drawn) [Methylglycosid, Methyl-3-Deoxy-D-Glyceropentulosid]
- antiproliferative/cytotoxische Wirkung [5]: eindeutige antiproliferative/cytotoxische Wirkung

Structure (SMILES): [Cl][Hg][Cl] [Negativkontrolle, HgCl₂, reference compound]
- Kolonienüberleben ([5]; Negativkontrolle VI (HgCl₂), concentration not given): 0%

Structure (SMILES): CCCCOC1(CO)C[C@H](O)CO1 (stereo partly drawn) [n-Butylglycosid, n-Butyl-3-Deoxy-D-Glyceropentulosid]
- Löslichkeit [6]: gut löslich in Wasser, Alkoholen und niederen Ketonen
- antiproliferative/cytotoxische Wirkung [5]: eindeutige antiproliferative/cytotoxische Wirkung
